Test results reported in patent US20250090437A1, “COSMETIC COMPOUNDING AGENT, COSMETIC AND PRODUCTION METHOD THEREOF” (MIYOSHI OIL & FAT CO., LTD., priority 2019, published 2025).

What was measured:
[1] = Water retention property test 1; type: physicochemical; conditions: 80 wt % aqueous solution; for Pre-test moisture rate: before the test (Karl Fischer); for Post-test moisture rate / Rate of reduction in moisture: unsealed; for Post-test moisture rate / Rate of reduction in moisture / Water retention property test 1 Post-test moisture rate / Water retention property test 1 Rate of reduction in moisture: 24 hours at 40° C. and 25% RH
Experimental: A moisture rate after 24 hours was again measured (post-test moisture rate: B), followed by using the formula below to calculate a rate of reduction in moisture so as to evaluate the water retention property. • Pre-test moisture rate: A (%) • Post-test moisture rate: B (%)

[2] = Water confinement property test (barrier property); type: physicochemical; conditions: 80 wt % aqueous solution, 0.01 mL/cm^2 on filter paper, 40° C. and 25% RH, 24 hours
Experimental: Next, 20.0 g of an ion-exchange water was put into a 40 mL pierce vial bottle (by AS ONE Corporation.), followed by removing an inner lid (rubber plug) of the pierce vial bottle, placing on the pierce vial bottle the filter paper to which each sample had been applied, and then plugging the bottle with an outer lid.
Further, Wm1, Wm2, Sm1 and Sm2 in the formula below respectively represent the following numerical values.
Wm1: Weight of ion-exchange water in vial before storage (using filter paper to which only ion-exchange water had been applied)
Wm2: Weight of ion-exchange water in vial after 24 hours (using filter paper to which only ion-exchange water had been applied)
Sm1: Weight of ion-exchange water in vial before storage (using filter paper to which sample had been applied)
Sm2: Weight of ion-exchange water in vial after 24 hours (using filter paper to which sample had been applied)

[3] = Sensory evaluation on healthy hair after using organic ammonium salt; set-up: species or system human; conditions: compared to the compounds of the comparative examples
Experimental: (§1) Here, an 80 wt % aqueous solution(s) of each of the compounds B11, B12, B23, B26 and B27 (content in terms of anhydride in the cases of the compounds B11, B12 and B23) were prepared and used as samples. Next, one minute was spent in evenly applying 10.0 g of each sample to a bundle of the healthy hairs weighing about 10 g, using a brush; the bundle of the healthy hairs was then left for 5 min. After leaving it for 5 min, the bundle of the healthy hairs was rinsed with a hot water of 40° C. for 30 sec, and evaluated was a finger-combing capability at the time of performing washing. The hair bundle that had been rinsed was then dried with a towel and further subjected to air drying for a day, followed by evaluating items such as flexibility, finger-combing capability, texture, elasticity/resilience (feeling by bare hands), volume increase (visual evaluation), cohesiveness, moist feeling, surface smoothness, non-stickiness (feeling by bare hands) and gloss (visual evaluation), from the perspective of superiority or inferiority to a test hair bundle(s) uncoated with the sample.

[4] = Water retention property and adherability with respect to healthy hair; set-up: species or system human; conditions: for Adherability to the healthy hair: compared to the compounds of comparative examples B1 to B8; for Compound adhesion rate / Post-test moisture rate: healthy hair immersed 60 min in 80 wt % aqueous solution; for Post-test moisture rate: after 24 hours at 40° C., pre-test 7.6%; for Post-test moisture rate / Rate of reduction in moisture: 35 to 40% RH; for Rate of reduction in moisture: healthy hair, 80 wt % aqueous solution, 24 hours at 40° C.
Experimental: In the following evaluations, a human black hair produced by Beaulax Co., Ltd was used as a healthy hair. A damaged hair was prepared by repeatedly having the healthy hair permed and bleached three times.
An 80 wt % aqueous solution of each of the compounds B1 to B26 (content in terms of anhydride in the cases of the compounds B1 to B23) was prepared, followed by using a Karl Fischer moisture meter (KF-200 by Mitsubishi Chemical Analytech Co., Ltd.) to confirm that a moisture rate was 20.0 wt %. As a healthy hair, there was used a chemically untreated healthy hair (human black hair by Beaulax Co., Ltd). The moisture rate (pre-test moisture rate A) of the hair was measured by an infrared moisture meter (by Kett Electric Laboratory).
After immersion, the hair was taken out, and KimWipes were then used to wipe off the compound until a change in weight was no longer observed, followed by measuring the weight of the hair (post-test hair weight B). The hair from which the compound had been wiped off was then placed into a thermo-hygrostat set to 40° C. and 35 to 40% RH. A moisture rate after 24 hours (post-test moisture rate B) was then measured, followed by calculating a rate of reduction in moisture with the following formula. Likewise, instead of the 80 wt % aqueous solution, evaluation was also performed in a similar manner using only an ion-exchange water (comparative example B4).
Further, an adhesion rate of the compound adhering to the hair was calculated with the following formula. […]

[5] = Sensory evaluation on damaged hair after using organic ammonium salt; set-up: species or system human; conditions: compared to the compounds of the comparative examples
Experimental: as §1, with “damaged” for “healthy”, “as” for “as flexibility, finger-combing capability, texture,”, “hands),” for “hands), volume increase (visual evaluation),”, “cohesiveness,” for “cohesiveness, moist feeling,”, “smoothness” for “smoothness, non-stickiness (feeling by bare hands)”, “non-waviness,” for “gloss (visual evaluation),”

In the case of CC(CO)(CO)CO [Compound C51], the Pre-test moisture rate [1] is reported as 20.0%, the Post-test moisture rate [1] is reported as 19.1% and the “Rate of reduction in moisture” value [1] is reported as 4.5%. For the same compound, the “Water evaporation inhibition rate” value [2] was 35.6%.

With CC(CO)(CO)CO [Compound C50] the Pre-test moisture rate [1] was 20.0%, the Post-test moisture rate [1] was 19.1% and the “Rate of reduction in moisture” value [1] was 4.4%. The “Water evaporation inhibition rate” value [2] was 39.1%.

For CC(N)(CO)CO.NCCCCCC(=O)O [Compound C76], the “Water evaporation inhibition rate” value [2] was 35.7%.

For CC(CO)(CO)CO [Compound C55], the Pre-test moisture rate [1] was 20.0%, the Post-test moisture rate [1] was 18.4% and the “Rate of reduction in moisture” value [1] was 7.9%. For the same compound, the “Water evaporation inhibition rate” value [2] was 34.1%.

For NC(CO)(CO)CO.O=C(O)CC(O)(CC(=O)O)C(=O)O [Compound C82], the “Water evaporation inhibition rate” value [2] was 35.8%.

For CC(C)CCCCCCCCCCCCCCC(=O)OCC(C)(N)CO (stereo not drawn) [Compound B35, 2-amino-2-methyl-1,3-propanediol isostearate], the “Sensory evaluation on healthy hair (flexibility, finger-combing, texture, elasticity/resilience, volume, cohesiveness, moist feeling, smoothness, non-stickiness, gloss)” value [3] was “superior”, the “Adherability to the healthy hair” value [4] was “higher adherability” and the “Sensory evaluation on damaged hair (elasticity/resilience, cohesiveness, surface smoothness, suppression of waviness)” value [5] was “superior”.

With CCCCC/C=C\C/C=C\CCCCCCCC(=O)OCC(C)(N)CO (stereo not drawn) [Compound B34, 2-amino-2-methyl-1,3-propanediol linoleate] the “Sensory evaluation on healthy hair (flexibility, finger-combing, texture, elasticity/resilience, volume, cohesiveness, moist feeling, smoothness, non-stickiness, gloss)” value [3] was “superior”, the “Adherability to the healthy hair” value [4] was “higher adherability” and the “Sensory evaluation on damaged hair (elasticity/resilience, cohesiveness, surface smoothness, suppression of waviness)” value [5] was “superior”.

With CS(=O)(=O)O.NC(CO)(CO)CO [Compound C83] the “Water evaporation inhibition rate” value [2] was 31.3%.

In the case of CC(C)(CO)CO [Compound C47], the “Water retention property test 1 Pre-test moisture rate” value [1] is reported as 20.0%, the “Water retention property test 1 Post-test moisture rate” value [1] is reported as 19.2% and the “Water retention property test 1 Rate of reduction in moisture” value [1] is reported as 4.7%. The “Water evaporation inhibition rate” value [2] was 34.8%.

For CC(C)(CO)CO [Compound C65], the “Water evaporation inhibition rate” value [2] was 39.4%.

In the case of CC(C)CCCCCCCCCCCCCCC(=O)OCC(N)(CO)CO [Compound B32, 2-amino-2-hydroxymethyl-1,3-propanediol isostearate], the “Sensory evaluation on healthy hair (flexibility, finger-combing, texture, elasticity/resilience, volume, cohesiveness, moist feeling, smoothness, non-stickiness, gloss)” value [3] is reported as “superior”, the “Adherability to the healthy hair” value [4] is reported as “higher adherability” and the “Sensory evaluation on damaged hair (elasticity/resilience, cohesiveness, surface smoothness, suppression of waviness)” value [5] is reported as “superior”.

For CC(CO)(CO)CO [Compound C54], the Pre-test moisture rate [1] was 20.0%, the Post-test moisture rate [1] was 18.8% and the “Rate of reduction in moisture” value [1] was 5.8%. The “Water evaporation inhibition rate” value [2] was 30.3%.

With CCCCn1cc[n+](C)c1.F[B-](F)(F)F [Compound C63, 1-butyl-3-methylimidazolium tetrafluoroborate, reference compound] the Pre-test moisture rate [1] was 20.0%, the Post-test moisture rate [1] was 11.7% and the “Rate of reduction in moisture” value [1] was 41.7%. For the same compound, the “Water evaporation inhibition rate” value [2] was 25.7%.

With CC(C)(C)CO [Compound C43] the “Water retention property test 1 Pre-test moisture rate” value [1] was 20.0%, the “Water retention property test 1 Post-test moisture rate” value [1] was 19.3% and the “Water retention property test 1 Rate of reduction in moisture” value [1] was 4.4%. For the same compound, the “Water evaporation inhibition rate” value [2] was 39.7%.

With CC(CO)(CO)CO [Compound C77] the “Water evaporation inhibition rate” value [2] was 35.4%.

For O [Compound B21], the Compound adhesion rate [4] was 1.1%, the Post-test moisture rate [4] was 5.8% and the “Rate of reduction in moisture” value [4] was 24%.

For CCCCCCCC/C=C\CCCCCCCC(=O)OCC(N)(CO)CO [Compound B30, 2-amino-2-hydroxymethyl-1,3-propanediol oleate], the “Sensory evaluation on healthy hair (flexibility, finger-combing, texture, elasticity/resilience, volume, cohesiveness, moist feeling, smoothness, non-stickiness, gloss)” value [3] was “superior”, the “Adherability to the healthy hair” value [4] was “higher adherability” and the “Sensory evaluation on damaged hair (elasticity/resilience, cohesiveness, surface smoothness, suppression of waviness)” value [5] was “superior”.

For CCCCn1cc[n+](C)c1.[Cl-] [Compound B25, 1-butyl-3-methylimidazolium chloride, reference compound], the Compound adhesion rate [4] was 1.0%, the Post-test moisture rate [4] was 4.0% and the “Rate of reduction in moisture” value [4] was 47%.

For CC(=O)CCC(=O)O.NC(CO)(CO)CO [Compound B17], the Compound adhesion rate [4] was 6.9%, the Post-test moisture rate [4] was 6.5% and the “Rate of reduction in moisture” value [4] was 15%.

For O [Compound B8], the Compound adhesion rate [4] was 1.3%, the Post-test moisture rate [4] was 6.1% and the “Rate of reduction in moisture” value [4] was 20%.

For CCCCCCCC/C=C\CCCCCCCC(=O)OCC(C)(N)CO (stereo not drawn) [Compound B33, 2-amino-2-methyl-1,3-propanediol oleate], the “Sensory evaluation on healthy hair (flexibility, finger-combing, texture, elasticity/resilience, volume, cohesiveness, moist feeling, smoothness, non-stickiness, gloss)” value [3] was “superior”, the “Adherability to the healthy hair” value [4] was “higher adherability” and the “Sensory evaluation on damaged hair (elasticity/resilience, cohesiveness, surface smoothness, suppression of waviness)” value [5] was “superior”.

For CC(CO)(CO)CO [Compound C52], the Pre-test moisture rate [1] was 20.0%, the Post-test moisture rate [1] was 18.6% and the “Rate of reduction in moisture” value [1] was 7.1%. The “Water evaporation inhibition rate” value [2] was 36.8%.

In the case of NC(CO)(CO)CO.O=C1OC(C(O)CO)C(O)=C1O (stereo not drawn) [Compound B20], the Compound adhesion rate [4] is reported as 2.1%, the Post-test moisture rate [4] is reported as 6.6% and the “Rate of reduction in moisture” value [4] is reported as 14%.

For CCCC[N+](CCCC)(CCCC)CCCC.[Br-] [Compound A54, tetrabutylammonium bromide, reference compound], the Pre-test moisture rate [1] was 20.0%, the Post-test moisture rate [1] was 15.3% and the “Rate of reduction in moisture” value [1] was 23.6%. The “Water evaporation inhibition rate” value [2] was 29.5%, the Post-test moisture rate [4] was 4.0% and the Compound adhesion rate ([4]; listed as B24) was 1.0%. For the same compound, the “Rate of reduction in moisture” value [4] was 47%.

In the case of CC(CO)(CO)CO [Compound C53], the Pre-test moisture rate [1] is reported as 20.0%, the Post-test moisture rate [1] is reported as 19.1% and the “Rate of reduction in moisture” value [1] is reported as 4.4%. For the same compound, the “Water evaporation inhibition rate” value [2] was 34.6%.
